Broadly, the inhibition is the share of the control response that was lost under treatment. One may read the IC50 as the concentration needed to halve the response being measured. A low value points to greater potency. Usually % Inhibition stands for the drop in the measured response relative to a control, in per cent.

The source of these data is patent publication US11773127B2, “Compounds and methods for treating bacterial infections” (Washington University, priority 2017, dated 2023).

SMILES strings stand for the structures. Like-named read-outs stand apart in the source and are kept apart here.

The assay has as its target T1, FmlHLD (Escherichia coli, UniProt P77588).
T1 construct: 6xHis (C); made in house; host or cells: E. coli C600, periplasm, pTRC99a
Nature of the assay: biochemical. It is filed as binding, E. coli. Particulars: for PI100 (percent inhibition): galactoside at 100 μM, 100 µM; for % Inhibition at [μM] [100]: compound at 100 μM; for inhibitory potency against FmlH, in words: ELISA-based competition assay. In short, it runs like this:
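Sialidase-treated bovine submaxillary mucin (ds-BSM) coated wells, BSA-blocked, then biotinylated FmlH^LD (20 μg/mL) with or without compound for 1 h at room temperature. Bound lectin detected by streptavidin-HRP/TMB, A450.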
A general note: In an ELISA, binding on a coated surface is turned into a signal by an enzyme label.

[1] abbreviates: mean with standard error of the mean.
The mark [2] stands for this setting: read-out: PI1 (percent inhibition), galactoside at 1 μM, mean with standard error of the mean.
Setting [3] is: read-out: PI10 (percent inhibition), galactoside at 10 μM, mean with standard error of the mean.
Where [4] appears, read: read-out: PI100 (percent inhibition), galactoside at 100 μM, mean with standard error of the mean.
Setting [5] is: IC50, inhibition of FmlHLD binding to ds-BSM.
Where [6] appears, read: inhibition of FmlHLD binding to ds-BSM.
Where [7] appears, read: IC50 (μM), Table 5, Gal and GalNAc inhibition of FmlH.
The mark [8] stands for this setting: read-out: % Inhibition at [μM] [1], compound at 1 μM, inhibition of FmlHLD binding to ds-BSM.
Where [9] appears, read: read-out: PI(1) (average percent inhibition), compound at 1 μM, Table 4.
Where [10] appears, read: read-out: % Inhibition at [μM] [100], compound at 100 μM, inhibition of FmlHLD binding to ds-BSM.
The mark [11] stands for this setting: read-out: % Inhibition at [μM] [10], compound at 10 μM, inhibition of FmlHLD binding to ds-BSM.

T1 sequence (P77588 25-182): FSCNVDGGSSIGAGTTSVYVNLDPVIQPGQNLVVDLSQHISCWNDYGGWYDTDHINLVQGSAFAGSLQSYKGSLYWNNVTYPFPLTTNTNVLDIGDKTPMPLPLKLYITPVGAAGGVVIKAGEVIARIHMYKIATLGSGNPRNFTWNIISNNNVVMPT

As for `COC(=O)c1cccc(-c2ccccc2O[C@@H]2O[C@H](CO)[C@H](O)[C@H](O)[C@H]2O)c1` [Compound 30β, 2′-(α/β-D-galactopyranosyloxy)-[1,1′-Biphenyl]-3-carboxylic acid methyl ester], the “PI100 (percent inhibition)” value under setting [1] is 86.6 ± 0.8%. Also, the inhibition at 1 µM under setting [2] was determined as 3.7 ± 3.5%. Under setting [3], the inhibition at 10 µM was determined as 22.4 ± 2.6%. Under setting [4], the inhibition at 100 µM turned out to be 87%.
With `CC(=O)N[C@@H]1[C@H](Oc2cccc(C(=O)OCc3ccccc3)c2-c2cccc(NS(C)(=O)=O)c2)OC(CO)[C@H](O)[C@@H]1O` (stereo partly drawn) [Compound 3081, Benzyl 6-(((2S,3S,4R,5R)-3-acetamido-4,5-dihydroxy-6-(hydroxymethyl)tetrahydro-2H-pyran-2-yl)oxy)-3′-(methylsulfonamido)-[1,1′-biphenyl]-2-carboxylate], under “IC50 (μM), Table 6, sulfonamides 3078-3090”, half-maximal inhibition (IC50) required 0.18 µM.
For `CC(=O)N[C@H]1[C@H](Oc2cccc(C#N)c2-c2cccc(NS(C)(=O)=O)c2)O[C@H](CO)[C@H](O)[C@@H]1O` [AM2107], the IC50 under setting [5] came out at 0.109 µM.
Consider `O=[N+]([O-])c1ccc(O[C@@H]2O[C@H](CO[C@@H]3O[C@H](CO)[C@H](O)[C@H](O)[C@H]3O)[C@H](O)[C@H](O)[C@H]2O)cc1` [Gal-b1-6-PNPG, reference compound], for which the “% Inhibition at [μM] [100]” value under setting [6] came to 19.41%.
`CC(=O)N[C@H]1[C@H](Oc2ccccc2-c2cccc(NS(C)(=O)=O)c2)O[C@H](CO)[C@H](O)[C@@H]1O` [AM2038, N-((2S,3R,4R,5R,6R)-4,5-dihydroxy-6-(hydroxymethyl)-2-((3′-(methylsulfonamido)-[1,1′-biphenyl]-2-yl)oxy)tetrahydro-2H-pyran-3-yl)acetamide]: the “potency relative to matched pair Gal/GalNAc derivative” value (2038 vs 2043, 2050 vs 3029) was “about 5 fold”. Besides, the half-maximal inhibitory concentration (IC50) came to 0.23 µM under setting [7] and 0.271 µM under setting [5]. The “greater potency than 29β-NAc” value (IC50 ratio) came out at 3 fold. Further, the inhibition at 0.1 µM is, setting by setting: (read-out: % Inhibition at [μM] [0.1], compound at 0.1 μM (100 nM), inhibition of FmlHLD binding to ds-BSM) 16.5%; (read-out: PI (0.1) (average percent inhibition), compound at 100 nM, Table 4) 16.5%. In addition, the inhibition at 1 µM under setting [8] was 81.4% and the inhibition at 1 µM under setting [9] came to 81.4%.
In the case of `OC[C@H]1O[C@@H](Oc2c[nH]c3ccccc23)[C@H](O)[C@@H](O)[C@H]1O` [Compound 16β], the “PI100 (percent inhibition)” value under setting [1] is 21.7 ± 2.4%. For the same compound, under setting [4], the inhibition at 100 µM is 22%.
`OC[C@H]1O[C@@H](Oc2ccccc2)[C@H](O)[C@@H](O)[C@H]1O` [Compound 1β, phenyl β-galactoside]: the “PI100 (percent inhibition)” value under setting [1] is reported as 76.9 ± 0.4%. In addition, the inhibition at 10 µM under setting [3] stood at 15.5 ± 4.2%. Also, the inhibition at 100 µM under setting [4] is 77%.
As for `Cc1cc(=O)oc2cc(O[C@@H]3O[C@H](CO)[C@H](O)[C@H](O)[C@H]3O)ccc12` [Compound 12β], the “PI100 (percent inhibition)” value under setting [1] was 85.3 ± 0.7%. The inhibition at 1 µM under setting [2] turned out to be 8.7 ± 3.1%. The inhibition at 10 µM under setting [3] was 19.7 ± 4.2%. In addition, under setting [4], the inhibition at 100 µM was 85%.
Regarding `OC[C@H]1O[C@@H](Oc2cccc3ccncc23)[C@H](O)[C@@H](O)[C@H]1O` [EXW020a], the inhibition at 100 µM under setting [10] is 15.2%.
As for `CC(=O)N[C@H]1[C@H](Oc2ccccc2-c2cccc([N+](=O)[O-])c2)O[C@H](CO)[C@H](O)[C@@H]1O` [AM2030, N-((2S,3R,4R,5R,6R)-4,5-dihydroxy-6-(hydroxymethyl)-2-((3′-nitro-[1,1′-biphenyl]-2-yl)oxy)tetrahydro-2H-pyran-3-yl)acetamide], the “inhibitory potency against FmlH, in words” value is “equal or slightly reduced potency”. The same compound displayed an IC50 under setting [7] of 2.66 µM. Further, the inhibition at 1 µM under setting [8] is 9.25%. Also, the inhibition at 1 µM under setting [9] was found to be 9.25%.
In the case of `CC(=O)N[C@H]1[C@@H](Oc2ccc([N+](=O)[O-])cc2)O[C@H](CO)[C@H](O)[C@@H]1O` [PNP-aGalNAc, reference compound], the “% Inhibition at [μM] [10]” value (compound at 10 μM, inhibition of FmlHLD binding to ds-BSM) worked out at 6.29%. The “% Inhibition at [μM] [100]” value under setting [6] turned out to be 82.04%.
In the case of `CC(=O)N[C@H]1[C@H](Oc2ccc3ncccc3c2)O[C@H](CO)[C@H](O)[C@@H]1O` [AM1184, N-((2S,3R,4R,5R,6R)-4,5-dihydroxy-6-(hydroxymethyl)-2-(quinolin-6-yloxy)tetrahydro-2H-pyran-3-yl)acetamide], the inhibition at 1 µM runs as follows: under setting [8], 7.56%; under setting [9], 7.56%.
For `CC1=CC(=O)Cc2c1cc(F)c(O[C@@H]1O[C@H](CO)[C@H](O)[C@H](O)[C@H]1O)c2F` [DiF-MUG, reference compound], the inhibition at 10 µM under setting [11] was 0.85%. Also, the inhibition at 100 µM under setting [10] is 49.7%.
For the compound `OC[C@H]1O[C@@H](Oc2ccccc2Cl)[C@H](O)[C@@H](O)[C@H]1O` [Compound 6β, 2-chlorophenyl β-D-galactopyranoside], the “PI100 (percent inhibition)” value under setting [1] turned out to be 90.5 ± 0.6%. The inhibition at 1 µM under setting [2] was found to be 8 ± 4%. Further, the inhibition at 10 µM under setting [3] worked out at 20.7 ± 5.5%. Moreover, the inhibition at 100 µM under setting [4] came to 90%.
Consider `N#Cc1ccc(O[C@@H]2O[C@H](CO)[C@H](O)[C@H](O)[C@H]2O)cc1` [Compound 152b], for which the inhibition at 1 µM under setting [8] amounted to 9.47%. For the same compound, the inhibition at 10 µM under setting [11] is 19.2%. For the same compound, under setting [10], the inhibition at 100 µM is 85.7%.
As for `CC(=O)N[C@H]1[C@H](Oc2ccccc2-c2cccc(C#N)c2)O[C@H](CO)[C@H](O)[C@@H]1O` [AM2035, N-((2S,3R,4R,5R,6R)-2-((3′-cyano-[1,1′-biphenyl]-2-yl)oxy)-4,5-dihydroxy-6-(hydroxymethyl)tetrahydro-2H-pyran-3-yl)acetamide], the “inhibitory potency against FmlH, in words” value is reported as “equal or slightly reduced potency”. The compound also gave a concentration for half-maximal inhibition (IC50) under setting [7] of 0.97 µM. For the same compound, the inhibition at 1 µM under setting [8] is 20.9%. Under setting [9], the inhibition at 1 µM came out at 20.9%.
As to `OC[C@H]1O[C@@H](SCCc2ccccc2)[C@H](O)[C@@H](O)[C@H]1O` [Compound 22β-thio], the inhibition at 10 µM under setting [3] came out at 2.3 ± 2.5%. Besides, under setting [4], the inhibition at 100 µM was found to be 49.8 ± 2.5%.
In the case of `CC(=O)N[C@H]1[C@H](Oc2ccccc2-c2cccc(NS(=O)(=O)C(F)(F)F)c2)O[C@H](CO)[C@H](O)[C@@H]1O` [AM2112], the IC50 under setting [5] came out at 2.43 µM.
Regarding `OC[C@H]1O[C@@H](Oc2cccc3ccccc23)[C@H](O)[C@@H](O)[C@H]1O` [Compound 18β, 1-naphthalenyl α/β-D-galactopyranoside], under setting [1], the “PI100 (percent inhibition)” value is given as 45.9 ± 3.7%. Moreover, the inhibition at 100 µM under setting [4] was 46%.
`CC(=O)N[C@@H]1[C@H](Oc2ccccc2-c2cc(C(=O)O)cc([N+](=O)[O-])c2)OC(CO)[C@H](O)[C@@H]1O` (stereo partly drawn) [Compound 3029, 2′-(((2S,3S,4R,5R)-3-acetamido-4,5-dihydroxy-6-(hydroxymethyl)tetrahydro-2H-pyran-2-yl)oxy)-5-nitro-[1,1′-biphenyl]-3-carboxylic acid] came in with a 50% inhibitory concentration (IC50) under setting [7] of 2.2 µM.
As for `N#Cc1ccc(O[C@@H]2O[C@H](CO)[C@H](O)[C@H](O)[C@H]2O)cc1` [Compound 9β, 4-cyanophenyl β-D-galactopyranoside], the “PI100 (percent inhibition)” value under setting [1] is recorded as 85.7 ± 1.6%. In addition, under setting [2], the inhibition at 1 µM is 9.5 ± 3.7%. Under setting [3], the inhibition at 10 µM was 19.2 ± 4.8%. In addition, the inhibition at 100 µM under setting [4] worked out at 86%.
On to `COC(=O)c1cccc(-c2ccccc2O[C@H]2O[C@H](CO)[C@H](O)[C@H](O)[C@H]2O)c1` [Compound 30α, 2′-(α/β-D-galactopyranosyloxy)-[1,1′-Biphenyl]-3-carboxylic acid methyl ester], for which, under setting [4], the inhibition at 100 µM turned out to be 13.1 ± 7.6%.
Take `COc1cccc(O[C@@H]2O[C@H](CO)[C@H](O)[C@H](O)[C@H]2NC(C)=O)c1-c1cccc(NS(C)(=O)=O)c1` [AM2082]: the 50% inhibitory concentration (IC50) under setting [5] worked out at 0.151 µM.
On to `O=c1ccc2nc3ccc(O[C@@H]4O[C@H](CO)[C@H](O)[C@H](O)[C@H]4O)cc3oc-2c1` [Resorufin Gal, reference compound], for which, under setting [11], the inhibition at 10 µM came to 24%. Under setting [10], the inhibition at 100 µM is 80.4%.
With `O=C(O)C1OC(Oc2ccc([N+](=O)[O-])cc2)C(O)C(O)C1O` (stereo not shown) [PNP Galacturonide, reference compound], the “% Inhibition at [μM] [100]” value under setting [6] is −2.40%.
Take `OC[C@H]1O[C@H](Oc2cccc3ccccc23)[C@H](O)[C@@H](O)[C@H]1O` [Compound 18α, 1-naphthalenyl α/β-D-galactopyranoside]: the inhibition at 100 µM under setting [4] was 28.1 ± 3.4%.
For `CC(=O)N[C@H]1[C@H](Oc2ccccc2-c2cccc(NC(=O)C(F)(F)F)c2)O[C@H](CO)[C@H](O)[C@@H]1O` [AM2101], the half-maximal inhibitory concentration (IC50) under setting [5] came out at 1.02 µM. In other words, the single-digit micromolar range.
With `COc1cc(OC)cc(O[C@@H]2O[C@H](CO)[C@H](O)[C@H](O)[C@H]2O)c1` [Compound 151d], under setting [11], the inhibition at 10 µM was found to be 11.7%. Moreover, the inhibition at 100 µM under setting [10] was 76.4%.
Take `CC(=O)N[C@H]1[C@H](Oc2cccc(C(=O)O)c2-c2cccc(NS(C)(=O)=O)c2)O[C@H](CO)[C@H](O)[C@@H]1O` [AM2148]: under setting [5], the IC50 worked out at 0.13 µM. This lies in the sub-micromolar range.
Still for that read-out and setting: for `CC(=O)N[C@H]1[C@H](Oc2cccc(F)c2-c2cccc(NS(C)(=O)=O)c2)O[C@H](CO)[C@H](O)[C@@H]1O` [AM2109] the value was 0.151 µM.
